Measurements from ChEMBL document CHEMBL3507680, “University of Dundee, Gates Library screen for HepG2 cell viability”.

Assay: Human HepG2 cell viability assay in 384 well format
Format: toxicity, cell-based
Design: dose 125 nL, time 70.5 hour; cytotoxicity at 70.5 h: concentration not given beside the values
Conditions: HepG2 cells, read-out: Inhibition

With `CCCNC(=O)c1cc2c(s1)CCN2c1ncccn1` the cytotoxicity at 70.5 h was 3.12%.
Compound `CN(C)CC(=O)N1Cc2nc(C(=O)N3CCCN(C)CC3)oc2C1` has a cytotoxicity at 70.5 h of -7.8%.
For `O=C(CC1CC1)N[C@@H]1CN(C(=O)c2cccs2)C[C@@H]2CCCO[C@@H]21`, the cytotoxicity at 70.5 h was -7.28%.
`CC(C)C(=O)N1CC[C@H]2N(C)CC[C@@]2(C(=O)Nc2ccccc2)CC1` gave a cytotoxicity at 70.5 h of -10.2%.
In the case of `O=C(C1CCOC1)N1C[C@@H]2CCN(C(=O)c3cscn3)[C@@H]2C1` (stereo partly specified), the cytotoxicity at 70.5 h was 14%.
Work on `c1cnc(N2CCc3onc(CN4CCCC4)c3C2)cn1` yielded a cytotoxicity at 70.5 h of 6.11%.
Compound `c1cnc(NCc2noc3c2CN(c2cnccn2)CC3)nc1` has a cytotoxicity at 70.5 h of -3.45%.
With `Cc1cc(C(=O)NC2CCc3c(ccc(=O)n3CC(C)C)C2)no1` (stereo unspecified) the cytotoxicity at 70.5 h was -4.48%.
Work on `CN(C)CCN1CCO[C@@H]2CCN(C(=O)c3cccn3C)CC[C@H]21` yielded a cytotoxicity at 70.5 h of 10.8%.
`CCS(=O)(=O)N1CCN(CC2CC2)c2ncccc2C1` showed a cytotoxicity at 70.5 h of -2.09%.
Work on `Cc1cc(C(=O)NC2CCc3c(ccc(=O)n3CCN(C)C)C2)no1` (stereo unspecified) yielded a cytotoxicity at 70.5 h of -3.71%.
Work on `CCN1Cc2ccccc2CC2(CCN(C)CC2)C1=O` yielded a cytotoxicity at 70.5 h of -7.96%.
In the case of `CCN1Cc2ccccc2CC2(CCN(C(=O)N(C)C)CC2)C1=O`, the cytotoxicity at 70.5 h was -5.37%.
For `CC(=O)N1CCO[C@@H]2CN(S(=O)(=O)c3cccs3)CC[C@@H]2C1`, the cytotoxicity at 70.5 h was -9.77%.
`COCC1COCCC12CCN(S(=O)(=O)c1ccccc1C)CC2` (stereo unspecified) showed a cytotoxicity at 70.5 h of 7.67%.
With `C[C@H]1CCCCN1CCCNc1nccc(-c2c[nH][nH]c2=O)n1` the cytotoxicity at 70.5 h was 4.41%.
For `CN1CCN(CC2CC2)C(=O)c2cnc(N3CCOCC3)nc21`, the cytotoxicity at 70.5 h was -3.35%.
Work on `Cc1[nH]c2ccccc2c1-c1ccnc(N[C@H](CO)CC(C)C)n1` yielded a cytotoxicity at 70.5 h of -2.73%.
`COC(=O)c1ccc2c(-c3ccnc(N[C@@H](C)CO)n3)c[nH]c2c1` gave a cytotoxicity at 70.5 h of -2.09%.
With `CC[C@@H](C)[C@@H](N)C(=O)Nc1cccc(-c2cnc(N(C)C)nc2)c1` the cytotoxicity at 70.5 h was -4.42%.
`O=C1CN(CC2CC2)Cc2nc(NCCc3ccccn3)sc21` gave a cytotoxicity at 70.5 h of 26.4%.
In the case of `CC(C)NC(=O)NCc1cc(-c2ccco2)n(CC(F)(F)F)n1`, the cytotoxicity at 70.5 h was -5.8%.
`CN1CCCN(c2nccc(-c3c[nH]nc3-c3ccncc3)n2)CC1` gave a cytotoxicity at 70.5 h of -3.42%.
Compound `O=C(Nc1ccc(-c2cnc(NCCO)nc2)cc1)[C@@H]1CCCCN1` has a cytotoxicity at 70.5 h of -3.46%.
With `CN(c1nccc(-c2cnc3sccn3c2=O)n1)C1CCCCC1` the cytotoxicity at 70.5 h was -3.44%.
In the case of `O=c1c(-c2ccnc(N3CCCC[C@@H]3CO)n2)cnc2sccn12`, the cytotoxicity at 70.5 h was -4.35%.
With `CN1CCN(CC2CC2)C(=O)c2cnc(N3CCC(CO)CC3)nc21` the cytotoxicity at 70.5 h was -4.14%.
Work on `O=c1[nH]c(-c2ccncc2)ncc1-c1ccnc(NC2CCCCC2)n1` yielded a cytotoxicity at 70.5 h of 18.2%.
`CC(C)[C@H](NS(C)(=O)=O)C(=O)NCc1cc(-c2ccccc2)n[nH]1` showed a cytotoxicity at 70.5 h of -10.8%.
`COc1cccc(OC)c1-c1ccnc2cc(CC(=O)NC3CC3)nn12` showed a cytotoxicity at 70.5 h of -11%.
In the case of `CCc1ccc(-c2ncc3c(n2)N(C)CCN(CCN(C)C)C3=O)cc1`, the cytotoxicity at 70.5 h was -5.02%.
`CC(C)NC(=O)N1CC(=O)c2sc(Nc3ccc(C#N)cc3)nc2C1` gave a cytotoxicity at 70.5 h of -7.13%.
Compound `COc1cccc(-c2ncc3c(n2)N(C)CCN(CCN(C)C)C3=O)c1` has a cytotoxicity at 70.5 h of -6.84%.
`Cc1cn2c(=O)c(-c3ccnc(N(C)C4CCCCC4)n3)cnc2s1` showed a cytotoxicity at 70.5 h of -3.7%.
`Cc1csc2ncc(-c3ccnc(N4CCCN(C)CC4)n3)c(=O)n12` gave a cytotoxicity at 70.5 h of -0.0913%.
In the case of `CC(C)Nc1nc2c(s1)C(=O)CN(C(=O)NCCc1ccccc1)C2`, the cytotoxicity at 70.5 h was -4.98%.
Work on `COc1ccccc1Nc1nc2c(s1)C(=O)CN(C(=O)CC(C)C)C2` yielded a cytotoxicity at 70.5 h of 2.87%.
`O=c1c(-c2ccnc(NC3CCCCC3)n2)cnc2sc(Cl)cn12` showed a cytotoxicity at 70.5 h of -5.61%.
`CC(C)Nc1ncc(-c2csc(NC(=O)C[C@H]3COCCN3)n2)cn1` showed a cytotoxicity at 70.5 h of -10.2%.
Work on `CNCC(=O)Nc1cccc(-c2cnc(NCCS(C)(=O)=O)nc2)c1` yielded a cytotoxicity at 70.5 h of 0.0271%.
Compound `CC(C)[C@H](NS(C)(=O)=O)C(=O)NCc1cc(-c2ccccc2)nn1C` has a cytotoxicity at 70.5 h of 7.09%.
`CCNc1nc(-c2cccnc2)c(-c2ccnc(N3CCOCC3)n2)s1` showed a cytotoxicity at 70.5 h of -10.7%.
For `CC[C@H](C)[C@H](N)C(=O)N1CC(=O)c2sc(Nc3ccc(F)cc3)nc2C1`, the cytotoxicity at 70.5 h was 7.24%.
`CS(=O)(=O)NCc1cc(-c2cc(F)cc(F)c2)nc(N2CC[C@H](O)C2)n1` gave a cytotoxicity at 70.5 h of -10.5%.
With `O=c1[nH][nH]cc1-c1ccnc(NCCN2CCCC2)n1` the cytotoxicity at 70.5 h was 50.4%.
`CN1CCN(CC2CC2)C(=O)c2cnc(N3CC[C@@H](O)C3)nc21` showed a cytotoxicity at 70.5 h of 27.1%.
`Nc1nccc(-c2c[nH]nc2C2CCCCC2)n1` showed a cytotoxicity at 70.5 h of 47.1%.
Compound `Cc1c(C(C)NC2CCOCC2)cnn1-c1ccc(F)cc1F` (stereo unspecified) has a cytotoxicity at 70.5 h of 9.85%.
`CCn1c(CC2CCN(C(=O)C3CC(C(C)C)=NO3)CC2)nn(C)c1=O` (stereo unspecified) gave a cytotoxicity at 70.5 h of -6.72%.
With `CCNc1ncc(C(=O)NCc2ccc3nsnc3c2)cn1` the cytotoxicity at 70.5 h was 0.938%.
With `CN(Cc1nc(-c2ccccc2)no1)Cc1cnc(N2CCOCC2)s1` the cytotoxicity at 70.5 h was 1.48%.
For `CCC(O)CNC(=O)c1cc(COc2ccc(OC)cc2Cl)[nH]n1` (stereo unspecified), the cytotoxicity at 70.5 h was -1.08%.
In the case of `CSc1ncccc1C(=O)N1CCCC1c1ccc(C(=O)N(C)C)s1` (stereo unspecified), the cytotoxicity at 70.5 h was -15.4%.
For `CN(C)Cc1cncc2c1CCN(C1CCOCC1)C2`, the cytotoxicity at 70.5 h was -8.32%.
Compound `Cc1noc(C)c1C(=O)N1Cc2ncn(C)c2C(COCC(C)C)C1` (stereo unspecified) has a cytotoxicity at 70.5 h of -7%.
Compound `COCc1cncc2c1CCN(C(=O)c1cccc(C#N)c1)C2` has a cytotoxicity at 70.5 h of -8.16%.
Compound `COCc1cncc2c1CCN(C(=O)c1ccc(C#N)cc1)C2` has a cytotoxicity at 70.5 h of -10.3%.
`COc1cc(N2C[C@H]3CN(Cc4ccccn4)C[C@H]3C2)ncn1` showed a cytotoxicity at 70.5 h of -4.15%.
Compound `O=C(c1ccco1)N1CCO[C@@H]2CN(Cc3nccs3)CC[C@@H]2C1` has a cytotoxicity at 70.5 h of -6.2%.
For `CC(C)COCC1CN(C(=O)c2cscn2)Cc2ncn(C)c21` (stereo unspecified), the cytotoxicity at 70.5 h was -6.45%.
In the case of `COC(=O)CCC(=O)N1CCCC2(CCCN2Cc2cccc(F)c2)C1` (stereo unspecified), the cytotoxicity at 70.5 h was -6.42%.
Compound `Cc1noc(C)c1C(=O)N1Cc2ncn(C)c2C(COCC2CC2)C1` (stereo unspecified) has a cytotoxicity at 70.5 h of -7.58%.
`CCn1nnc2c1C(COCC(=O)N(C)C)CN(Cc1ccco1)C2` (stereo unspecified) showed a cytotoxicity at 70.5 h of 10.6%.
`Cc1nc(COCC2CN(C(N)=O)Cc3nccn3C2)cs1` (stereo unspecified) gave a cytotoxicity at 70.5 h of -5.1%.
`Cc1nc(COCC2CN(C(=O)N(C)C)Cc3nccn3C2)cs1` (stereo unspecified) gave a cytotoxicity at 70.5 h of -5.94%.
For `CC(C)N1CCO[C@@H]2CN(S(=O)(=O)c3cccs3)CC[C@@H]2C1`, the cytotoxicity at 70.5 h was -7.93%.
With `CCN1CCO[C@@H]2CN(S(=O)(=O)c3cccs3)CC[C@@H]2C1` the cytotoxicity at 70.5 h was -6.19%.
Work on `Cn1cc(CN2CCc3onc(C(=O)N4CCCC4)c3C2)cn1` yielded a cytotoxicity at 70.5 h of 5.88%.
For `Cc1noc(C)c1CN1CCC2(CCN(Cc3cccc(F)c3)CC2)C1`, the cytotoxicity at 70.5 h was -9.09%.
`Cc1ccc(CNC2CC3(CCN(CCO)CC3)c3ccccc32)s1` (stereo unspecified) showed a cytotoxicity at 70.5 h of 4.93%.
`CS(=O)(=O)N1CCO[C@@H]2CCN(Cc3ccncc3)CC[C@H]21` showed a cytotoxicity at 70.5 h of -6.06%.
`CN(C)C(=O)COCc1cncc2c1CCN(C1CCOCC1)C2` gave a cytotoxicity at 70.5 h of -7.93%.
Compound `CN(C)C1CCC2(CCN(Cc3nccn3C)CC2)c2ccccc21` (stereo unspecified) has a cytotoxicity at 70.5 h of -4.41%.
In the case of `CCN1Cc2nccn2CC(COCc2csc(C)n2)C1` (stereo unspecified), the cytotoxicity at 70.5 h was -3.32%.
Work on `Cc1noc(C)c1CN1C[C@H](OCC2CCN(C)CC2)[C@H]2COC[C@H]21` yielded a cytotoxicity at 70.5 h of 30.4%.
In the case of `Cc1ccc(CN2CC[C@@H]3OCCN(Cc4ccncc4)[C@H]3CC2)s1`, the cytotoxicity at 70.5 h was -6.32%.
